Patent US10696692B2, “Amido-benzyl sulfone and sulfoxide derivates” (Forma TM, LLC, priority 2012, dated 2020)
Like-named read-outs stand apart in the source and are kept apart here.

How the values were obtained:
NAMPT = NAMPT (Homo sapiens (Human), UniProt P43490); experiment: Assay 1: Biochemical Inhibition Assay (NAMPT enzymatic reaction, NMN quantified by mass spectrometry); conditions: read-out: Biochemical (IC50);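 also: recombinant His-tagged human NAMPT preincubated with compound 15 min, then reacted 30 min at rt with 1 µM NAM, 100 µM PRPP, 2.5 mM ATP, NMN product read by RapidFire MS, normalized to L-Cystathionine internal standard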
A2780 cells = experiment: Assay 2: In-Vitro Cell Proliferation Assay (A2780 cells, SRB readout, 72 hours); assay type: cell-based; conditions: A2780 cells, 72 hours, SRB, read-out: Cell Proliferation (IC50);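 also: viable cells counted via sulforhodamine B staining, absorbance at 570 nm, after 72 h exposure at 37 °C, DMSO 0.1% as control, media-only background subtracted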

Sequence of NAMPT (P43490 whole entry): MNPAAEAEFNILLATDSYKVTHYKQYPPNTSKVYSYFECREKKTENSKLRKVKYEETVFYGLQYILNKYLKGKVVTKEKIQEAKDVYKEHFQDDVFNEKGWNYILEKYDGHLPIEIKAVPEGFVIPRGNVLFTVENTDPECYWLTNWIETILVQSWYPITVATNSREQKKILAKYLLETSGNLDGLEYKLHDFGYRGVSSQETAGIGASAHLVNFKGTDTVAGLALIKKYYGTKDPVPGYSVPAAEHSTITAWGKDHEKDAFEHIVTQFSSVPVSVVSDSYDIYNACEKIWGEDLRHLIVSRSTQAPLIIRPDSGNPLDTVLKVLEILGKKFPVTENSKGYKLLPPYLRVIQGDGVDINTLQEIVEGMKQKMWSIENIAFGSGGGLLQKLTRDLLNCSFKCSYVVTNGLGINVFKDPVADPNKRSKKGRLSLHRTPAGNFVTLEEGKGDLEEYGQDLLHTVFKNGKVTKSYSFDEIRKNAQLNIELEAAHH

SMILES	IC50 (NAMPT)	IC50 (A2780 cells; Homo sapiens, A2780, 72 h)	IC50 (A2780 cells)
CC(C)(C)OC(=O)NC1CCN(S(=O)(=O)c2ccc(CNC(=O)c3ccc4nccn4c3)cc2)CC1 [Example 55, [1-(4-{[(lmodazo[1,2-a]pyridine-6-carbonyl)-amino]-methyl}-benzenesulfonyl)-piperidin-4-yl]-carbamic acid tert-butyl ester]	7.7 nM	4.3 nM	–
N#CCCNC1CCN(S(=O)(=O)c2ccc(CNC(=O)c3cnc4[nH]ncc4c3)cc2)CC1 [Example 57, 1H-Pyrazolo[3,4-b]pyridine-5-carboxylic acid 4-[4-(2-cyano-ethylamino)-piperidine-1-sulfonyl]-benzylamide]	64.8 nM	55.5 nM	–
O=C(NCc1ccc(S(=O)(=O)N2CCCCC2)cc1)c1ccn2nccc2n1 [Example 58, Pyrazolo[1,5-a]pyrimidine-5-carboxylic acid 4-(piperidine-1-sulfonyl)-benzylamide]	240 nM	2000 nM	–
C[C@@H]1CN(S(=O)(=O)c2ccc(CNC(=O)c3cc4ccncc4o3)cc2)C[C@H](C)N1 [Example 61, cis-Furo[2,3-c]pyridine-2-carboxylic acid 4-((3R,5S)-3,5-dimethyl-piperazine-1-sulfonyl)-benzylamide]	21.5 nM	23.3 nM	–
O=C(NCc1ccc(S(=O)(=O)C2CCN(CC(F)(F)F)CC2)cc1)c1cnc2nccn2c1 [Example 64, Imidazo[1,2-a]pyrimidine-6-carboxylic acid 4-[1-(2,2,2-trifluoro-ethyl)-piperidine-4-sulfonyl]-benzylamide]	3.7 nM	–	8.8 nM
O=C(NCc1ccc(S(=O)(=O)C2CCN(CC(F)(F)F)CC2)cc1)c1ccc2nccn2c1 [Example 65, Imidazo[1,2-a]pyridine-6-carboxylic acid 4-[1-(2,2,2-trifluoro-ethyl)-piperidine-4-sulfonyl]-benzylamide]	12.4 nM	–	2.1 nM
O=C(NCc1ccc(S(=O)(=O)C2CCN(CC(F)(F)F)CC2)cc1)c1cc2cnccc2[nH]1 [Example 66, 1H-Pyrrolo[3,2-c]pyridine-2-carboxylic acid 4-[1-(2,2,2-trifluoro-ethyl)-piperidine-4-sulfonyl]-benzylamide]	15.4 nM	–	3.2 nM
O=C(NCc1ccc(S(=O)(=O)C2CCN(C3CCOCC3)CC2)cc1)c1ccc2nccn2c1 [Example 69, Imidazo[1,2-a]pyridine-6-carboxylic acid 4-[1-(tetrahydro-pyran-4-yl)-piperidine-4-sulfonyl]-benzylamide]	13.6 nM	–	4.7 nM
O=C(NCc1ccc(S(=O)(=O)C2CCN(C3CCOCC3)CC2)cc1)c1cnc2nccn2c1 [Example 78, Imidazo[1,2-a]pyrimidine-6-carboxylic acid 4-[1-(tetrahydro-pyran-4-yl)-piperidine-4-sulfonyl]-benzylamide]	4 nM	–	47.9 nM
O=C(NCc1ccc(S(=O)(=O)[C@@H]2CCOC2)cc1)c1cnc2nccn2c1 [Example 80, Imidazo[1,2-a]pyrimidine-6-carboxylic acid 4-[(R)-(tetrahydro-furan-3-yl)sulfonyl]-benzylamide]	8.9 nM	–	457 nM
C[C@@H]1CN(S(=O)(=O)c2ccc(CNC(=O)c3ccc4nccn4c3)cc2)C[C@H](C)N1CC(F)(F)F [Example 83, Imidazo[1,2-a]pyridine-6-carboxylic acid 4-[(3R,5S)-3,5-dimethyl-4-(2,2,2-trifluoro-ethyl)-piperazine-1-sulfonyl]-benzylamide]	7.7 nM	2.6 nM	–
O=C(NCc1ccc(S(=O)(=O)N2C[C@@H]3C[C@H]2CO3)cc1)c1ccc2nccn2c1 [Example 84, Imidazo[1,2-a]pyridine-6-carboxylic acid 4-[(1S,4S)-(2-oxa-5-aza-bicyclo[2.2.1]hept-5-yl)sulfonyl]-benzylamide]	37.4 nM	16.6 nM	–
CC(=O)N1CCC(S(=O)(=O)c2ccc(CNC(=O)c3cnc4nccn4c3)cc2)CC1 [Example 86, Imidazo[1,2-a]pyrimidine-6-carboxylic acid 4-(1-acetyl-piperidine-4-sulfonyl)-benzylamide]	5.1 nM	–	527 nM
O=C(NCc1ccc(S(=O)(=O)N2CCN(C3COC3)CC2)cc1)c1ccc2nccn2c1 [Example 92, Imidazo[1,2-a]pyridine-6-carboxylic acid 4-(4-oxetan-3-yl-piperazine-1-sulfonyl)-benzylamide]	29.4 nM	7.5 nM	–
CC(=O)N1CCN(S(=O)(=O)c2ccc(CNC(=O)c3ccc4nccn4c3)cc2)CC1 [Example 93, Imidazo[1,2-a]pyridine-6-carboxylic acid 4-(4-acetyl-piperazine-1-sulfonyl)-benzylamide]	22.4 nM	13 nM	–
O=C(NCc1ccc(S(=O)(=O)N2CCN(CCO)CC2)cc1)c1ccc2nccn2c1 [Example 94, Imidazo[1,2-a]pyridine-6-carboxylic acid 4-[4-(2-hydroxy-ethyl)-piperazine-1-sulfonyl]-benzylamide]	75.9 nM	29 nM	–
N#CC1CCN(S(=O)(=O)c2ccc(CNC(=O)c3ccc4nccn4c3)cc2)CC1 [Example 95, Imidazo[1,2-a]pyridine-6-carboxylic acid 4-(4-cyano-piperidine-1-sulfonyl)-benzylamide]	41 nM	33.5 nM	–
O=C(NCc1ccc(S(=O)(=O)N2CCC(CO)CC2)cc1)c1ccc2nccn2c1 [Example 96, Imidazo[1,2-a]pyridine-6-carboxylic acid 4-(4-hydroxymethyl-piperidine-1-sulfonyl)-benzylamide]	24.7 nM	9.4 nM	–
CC(=O)N1CCCN(S(=O)(=O)c2ccc(CNC(=O)c3ccc4nccn4c3)cc2)CC1 [Example 100, Imidazo[1,2-a]pyridine-6-carboxylic acid 4-(4-acetyl-[1,4]diazepane-1-suIfonyl)-benzylamide]	25.7 nM	25.4 nM	–
CC(C)(C)OC(=O)N1CCC2(CCN(S(=O)(=O)c3ccc(CNC(=O)c4ccc5nccn5c4)cc3)CC2)C1 [Example 103, 8-(4-{[(Imidazo[1,2-a]pyridine-6-carbonyl)-amino]-methyl}-benzenesulfonyl)-2,8-diaza-spiro[4.5]decane-2-carboxylic acid tert-butyl ester]	29.5 nM	39.4 nM	–
N#CCCN1CCN(S(=O)(=O)c2ccc(CNC(=O)c3ccc4nccn4c3)cc2)CC1 [Example 104, Imidazo[1,2-a]pyridine-6-carboxylic acid 4-[4-(2-cyano-ethyl)-piperazine-1-sulfonyl]-benzylamide]	26.9 nM	8.8 nM	–

Results, then the molecule that gave them:

IC50 (NAMPT)	IC50 (A2780 cells; Homo sapiens, A2780, 72 h)	IC50 (A2780 cells)	SMILES
15.6 nM	11.4 nM	–	O=C(NCc1ccc(S(=O)(=O)N2CCC[C@H](O)C2)cc1)c1ccc2nccn2c1 [Example 54, Imidazo[1,2-a]pyridine-6-carboxylic acid 4-((S)-3-hydroxy-piperidine-1-sulfonyl)-benzylamide]
29.4 nM	15.2 nM	–	C[C@@H]1CN(S(=O)(=O)c2ccc(CNC(=O)c3ccc4nccn4c3)cc2)C[C@H](C)N1 [Example 60, cis-Imidazo[1,2-a]pyridine-6-carboxylic acid 4-((3R,5S)-3,5-dimethyl-piperazine-1-sulfonyl)-benzylamide]
13.5 nM	–	5.4 nM	O=C(NCc1ccc(S(=O)(=O)C2CCN(CC(F)(F)F)CC2)cc1)c1cc2ccncc2o1 [Example 67, Furo[2,3-c]pyridine-2-carboxylic acid 4-[1-(2,2,2-trifluoro-ethyl)-piperidine-4-sulfonyl]-benzylamide]
6.4 nM	8 nM	–	O=C(NCc1ccc(S(=O)(=O)N2C[C@@H]3CC(F)(F)C[C@@H]3C2)cc1)c1ccc2nccn2c1 [Example 70, cis-Imidazo[1,2-a]pyridine-6-carboxylic acid 4-((3aR,6aS)-5,5-difluoro-hexahydro-cyclopenta[c]pyrrole-2-sulfonyl)-benzylamide]
14.3 nM	5.7 nM	–	O=C(NCc1ccc(S(=O)(=O)N2CC3CCOC3C2)cc1)c1ccc2nccn2c1 (stereo not shown) [Example 72, Imidazo[1,2-a]pyridine-6-carboxylic acid 4-(hexahydro-furo[2,3-c]pyrrole-5-sulfonyl)-benzylamide]
9.8 nM	–	423 nM	O=C(NCc1ccc(S(=O)(=O)[C@H]2CCOC2)cc1)c1cnc2nccn2c1 [Example 76, Imidazo[1,2-a]pyrimidine-6-carboxylic acid 4-[(S)-(tetrahydro-furan-3-yl)sulfonyl]-benzylamide]
26.1 nM	–	34.8 nM	O=C(NCc1ccc(S(=O)(=O)N2CCC[C@@H](O)C2)cc1)c1cc2ccncc2o1 [Example 82, Furo[2,3-c]pyridine-2-carboxylic acid 4-((R)-3-hydroxy-piperidine-1-sulfonyl)-benzylamide]
227 nM	–	1800 nM	O=C(NCc1ccc(S(=O)(=O)[C@@H]2CCOC2)cc1)c1cnc2[nH]ncc2c1 [Example 90, 1H-Pyrazolo[3,4-b]pyridine-5-carboxylic acid 4-[(R)-(tetrahydro-furan-3-yl)sulfonyl]-benzylamide]
14.4 nM	5.4 nM	–	O=C(NCc1ccc(S(=O)(=O)N2CCC(N3CCCC3)CC2)cc1)c1ccc2nccn2c1 [Example 97, Imidazo[1,2-a]pyridine-6-carboxylic acid 4-(4-pyrrolidin-1-yl-piperidine-1-sulfonyl)-benzylamide]
46.1 nM	10.1 nM	–	COCCN1CCN(S(=O)(=O)c2ccc(CNC(=O)c3ccc4nccn4c3)cc2)CC1 [Example 98, Imidazo[1,2-a]pyridine-6-carboxylic acid 4-[4-(2-methoxy-ethyl)-piperazine-1-sulfonyl]-benzylamide]
15.8 nM	7.7 nM	–	O=C(NCc1ccc(S(=O)(=O)N2CCC(F)(F)C2)cc1)c1ccc2nccn2c1 [Example 99, Imidazo[1,2-a]pyridine-6-carboxylic acid 4-(3,3-difluoro-pyrrolidine-1-sulfonyl)-benzylamide]
